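At the GI50, growth is halved. At the TGI there is no net growth.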
Experiments:
Assay in all cases: inhibition of tumour cell growth, NCI panel, 384-well format
[1] = system: PC-3 prostate
[2] = system: MDA-MB-231 breast
[3] = system: UO-31 renal
[4] = system: NCI/ADR-RES ovarian
[5] = system: NCI-H226 lung
[6] = system: COLO 205 colon
[7] = system: SNB-19 CNS
[8] = system: MCF7 breast
[9] = system: EKVX NSCLC
[10] = system: HT29 colon
[11] = system: RPMI-8226 leukemia
[12] = system: T-47D breast
[13] = system: SF-268 CNS
[14] = system: U251 glioblastoma
[15] = system: HCT-15 colon
[16] = system: SW-620 colon
[17] = system: NCI-H460 NSCLC
[18] = system: SN12C renal
[19] = system: OVCAR-5 ovarian
[20] = system: BT-549 breast
[21] = system: KM12 colon
[22] = system: CAKI-1 renal
[23] = system: SNB-75 CNS
[24] = system: IGROV1 ovarian
[25] = system: NCI-H522 lung
[26] = system: MDA-MB-468 breast
[27] = system: LOX IMVI melanoma
[28] = system: UACC-257 melanoma
[29] = system: MALME-3M melanoma
[30] = system: A549 NSCLC
[31] = system: HOP-92 NSCLC
[32] = system: 786-0 renal
[33] = system: RXF 393 renal
[34] = system: K-562 leukemia
[35] = system: TK-10 renal
[36] = system: SK-MEL-5 melanoma
[37] = system: SK-OV-3 ovarian
[38] = system: OVCAR-8 ovarian
[39] = system: SF-295 CNS
[40] = system: A498 renal
[41] = system: DU-145 prostate
[42] = system: HOP-62 NSCLC
[43] = system: ACHN renal
[44] = system: SF-539 CNS
[45] = system: NCI-H23 lung
[46] = system: SR leukemia
[47] = system: HS 578T breast
[48] = system: NCI-H322M lung
[49] = system: HL-60(TB) leukemia
[50] = system: SK-MEL-28 melanoma
[51] = system: OVCAR-3 ovarian
[52] = system: MDA-MB-435 melanoma
[53] = system: HCT-116 colon
[54] = system: HCC-2998 colon
[55] = system: OVCAR-4 ovarian
[56] = system: CCRF-CEM leukemia
[57] = system: MOLT-4 leukemia
[58] = system: M14 melanoma

Compound COc1cccc(OCCCN)c1-c1cc(Nc2cnc(C#N)cn2)n[nH]1 has a GI50 [1] of 0.0559 µM, a TGI [1] of 13.2 µM and a GI50 [2] of 0.0353 µM. For the same compound, the TGI [2] was 5.25 µM, the TGI [3] was 16.3 µM and the GI50 [4] was 0.016 µM. For the same compound, the TGI [4] was 0.0596 µM, the GI50 [5] was 5360 nM and the TGI [5] was 18.8 µM. For the same compound, the GI50 [6] was 16.9 nM, the TGI [6] was 0.133 µM and the TGI [7] was 0.122 µM. It also gave a TGI [8] of 13.3 µM, a TGI [9] of 12.7 µM and a GI50 [10] of 19.9 nM. For the same compound, the TGI [10] was 0.145 µM, the TGI [11] was 0.0278 µM and the GI50 [12] was 1.83 µM. The TGI [12] was 18.3 µM, the GI50 [13] was 0.0249 µM and the TGI [13] was 6.59 µM. The GI50 [14] was 0.0255 µM, the TGI [14] was 11.9 µM and the GI50 [15] was 0.0121 µM. For the same compound, the TGI [15] was 0.0288 µM, the GI50 [16] was 0.0715 µM and the TGI [16] was 2.29 µM. It also gave a GI50 [17] of 20.9 nM, a TGI [17] of 0.121 µM and a GI50 [18] of 0.0396 µM. The TGI [18] was 0.761 µM, the TGI [19] was 0.017 µM and the TGI [20] was 0.0242 µM. The TGI [21] was 0.0867 µM, the GI50 [22] was 35.4 nM and the TGI [22] was 2.62 µM. For the same compound, the GI50 [23] was 0.0171 µM, the TGI [23] was 0.49 µM and the TGI [24] was 1.27 µM. The GI50 [25] was 0.0352 µM, the TGI [25] was 0.833 µM and the TGI [26] was 0.0116 µM. For the same compound, the GI50 [27] was 0.0234 µM, the TGI [27] was 0.847 µM and the GI50 [28] was 0.0181 µM. For the same compound, the TGI [28] was 0.0814 µM, the TGI [29] was 0.0349 µM and the TGI [30] was 14.2 µM.
With CC1(O)CC(c2nc(-c3ccc4ccc(-c5ccccc5)nc4c3)c3c(N)nccn23)C1 (centres undefined) the GI50 [31] was 2730 nM, the TGI [31] was 15.3 µM and the GI50 [32] was 12.5 µM. It also gave a TGI [32] of 25.1 µM, a GI50 [33] of 2.76 µM and a TGI [33] of 9.01 µM. It also gave a GI50 [34] of 7.3 µM, a TGI [34] of 20.5 µM and a GI50 [35] of 6.58 µM. The TGI [35] was 19.3 µM, the GI50 [36] was 2430 nM and the TGI [36] was 12 µM. For the same compound, the GI50 [1] was 10 µM, the TGI [1] was 22.8 µM and the GI50 [37] was 8.99 µM. It also gave a TGI [37] of 21 µM, a GI50 [2] of 5.42 µM and a TGI [2] of 18.9 µM. The GI50 [38] was 10.2 µM, the TGI [38] was 22 µM and the GI50 [3] was 6.8 µM. The TGI [3] was 20.5 µM, the GI50 [39] was 12.9 µM and the TGI [39] was 25.6 µM. It also gave a GI50 [4] of 5.47 µM, a TGI [4] of 18.7 µM and a GI50 [5] of 2860 nM. The TGI [5] was 12.2 µM, the GI50 [6] was 209 nM and the TGI [6] was 11.3 µM. The GI50 [7] was 13 µM, the TGI [7] was 25.9 µM and the GI50 [40] was 6.67 µM. For the same compound, the TGI [40] was 19 µM, the GI50 [8] was 182 nM and the TGI [8] was 13.4 µM. It also gave a GI50 [41] of 5.74 µM, a TGI [41] of 20.3 µM and a GI50 [42] of 7.05 µM. It also gave a TGI [42] of 20.3 µM, a GI50 [43] of 5.3 µM and a TGI [43] of 22.4 µM. It also gave a GI50 [9] of 2740 nM, a TGI [9] of 16.9 µM and a GI50 [10] of 306 nM. The TGI [10] was 16 µM, the GI50 [44] was 13 µM and the TGI [44] was 25.8 µM. It also gave a GI50 [11] of 1.32 µM, a TGI [11] of 4.12 µM and a GI50 [12] of 4.67 µM. For the same compound, the TGI [12] was 14.3 µM, the GI50 [45] was 2170 nM and the TGI [45] was 14.9 µM. It also gave a GI50 [46] of 10.2 µM, a TGI [46] of 21.8 µM and a GI50 [13] of 10.8 µM. It also gave a TGI [13] of 22.9 µM, a GI50 [47] of 9.96 µM and a TGI [47] of 21.6 µM. It also gave a GI50 [14] of 13 µM, a TGI [14] of 25.8 µM and a GI50 [48] of 4.22 µM. It also gave a TGI [48] of 17.4 µM, a GI50 [15] of 3.09 µM and a TGI [15] of 14.6 µM. The GI50 [16] was 3.85 µM, the TGI [16] was 17.9 µM and the GI50 [17] was 2790 nM. For the same compound, the TGI [17] was 15.5 µM, the GI50 [49] was 51.7 nM and the TGI [49] was 1610 nM. It also gave a GI50 [50] of 13.8 µM, a TGI [50] of 26.7 µM and a GI50 [18] of 12.8 µM. For the same compound, the TGI [18] was 25.6 µM, the GI50 [19] was 12.7 µM and the TGI [19] was 25.9 µM. It also gave a GI50 [51] of 10.5 µM, a TGI [51] of 22.4 µM and a GI50 [52] of 7.98 µM. The TGI [52] was 20.8 µM, the GI50 [20] was 5.8 µM and the TGI [20] was 18.2 µM. For the same compound, the GI50 [21] was 3.97 µM, the TGI [21] was 13.8 µM and the GI50 [22] was 5360 nM. It also gave a TGI [22] of 18.3 µM, a GI50 [23] of 10.3 µM and a TGI [23] of 22 µM. For the same compound, the GI50 [24] was 10.7 µM, the TGI [24] was 24.1 µM and the GI50 [53] was 7.55 µM. It also gave a TGI [53] of 20.7 µM, a GI50 [25] of 5.74 µM and a TGI [25] of 19 µM. It also gave a GI50 [26] of 1900 nM, a TGI [26] of 6.36 µM and a GI50 [27] of 11.1 µM. The TGI [27] was 23.2 µM, the GI50 [54] was 8.12 µM and the TGI [54] was 20.7 µM. The GI50 [28] was 10.7 µM, the TGI [28] was 22.5 µM and the GI50 [29] was 2.76 µM. The TGI [29] was 12.3 µM, the GI50 [55] was 10.3 µM and the TGI [55] was 22.5 µM. For the same compound, the GI50 [56] was 5.63 µM, the TGI [56] was 17.9 µM and the GI50 [57] was 2.89 µM. It also gave a TGI [57] of 10.4 µM, a GI50 [58] of 10.5 µM and a TGI [58] of 22.4 µM. For the same compound, the GI50 [30] was 10.3 µM and the TGI [30] was 23.3 µM.
In the case of Cc1c(F)c(N)c2c(=O)cc(-c3ccc(N)c(F)c3)oc2c1F, the GI50 [33] is reported as 10.5 µM, the TGI [33] is reported as 31.5 µM and the GI50 [34] is reported as 1.75 µM. It also gave a GI50 [36] of less than 10 nM, a TGI [36] greater than 100 µM and a GI50 [1] greater than 100 µM. It also gave a TGI [1] greater than 100 µM, a GI50 [37] of 29.3 µM and a TGI [37] greater than 100 µM. For the same compound, the GI50 [2] was 26.7 µM, the TGI [2] was greater than 100 µM and the GI50 [4] was 14.1 µM. It also gave a TGI [4] greater than 100 µM, a GI50 [5] of less than 10 nM and a GI50 [40] of less than 0.01 µM. The TGI [40] was 0.13 µM, the GI50 [8] was less than 10 nM and the TGI [8] was 0.0338 µM. The GI50 [9] was 2980 nM, the TGI [9] was greater than 100 µM and the GI50 [10] was greater than 100000 nM. The TGI [10] was greater than 100 µM, the GI50 [44] was 28 µM and the TGI [44] was greater than 100 µM. It also gave a GI50 [11] of 14.2 µM, a TGI [11] greater than 100 µM and a GI50 [46] of 4.12 µM. It also gave a TGI [46] greater than 100 µM, a GI50 [13] of 23.2 µM and a TGI [13] of 97.6 µM. It also gave a GI50 [47] of 10.7 µM, a TGI [47] of 29.5 µM and a GI50 [14] of 18 µM. The TGI [14] was greater than 100 µM, the GI50 [48] was 24.3 µM and the TGI [48] was greater than 100 µM. The GI50 [15] was greater than 100 µM, the TGI [15] was greater than 100 µM and the GI50 [16] was greater than 100 µM. It also gave a TGI [16] greater than 100 µM, a GI50 [17] of less than 10 nM and a TGI [17] greater than 100 µM. The GI50 [49] was 157 nM, the TGI [49] was greater than 100000 nM and the GI50 [50] was greater than 100 µM. It also gave a TGI [50] greater than 100 µM, a GI50 [19] of less than 0.01 µM and a GI50 [51] of 0.0251 µM. For the same compound, the TGI [51] was 37.9 µM, the GI50 [52] was 34.9 µM and the TGI [52] was greater than 100 µM. It also gave a GI50 [20] of 16.4 µM, a TGI [20] of 40.4 µM and a GI50 [21] of 93 µM. The TGI [21] was greater than 100 µM, the GI50 [22] was less than 10 nM and the TGI [22] was greater than 100 µM. For the same compound, the GI50 [23] was 10.8 µM, the TGI [23] was 25.2 µM and the GI50 [24] was less than 0.01 µM. It also gave a GI50 [53] of 28 µM, a TGI [53] greater than 100 µM and a GI50 [25] of 9.4 µM. It also gave a TGI [25] of 43.1 µM, a GI50 [26] of less than 10 nM and a GI50 [27] greater than 100 µM. The TGI [27] was greater than 100 µM, the GI50 [54] was less than 0.01 µM and the TGI [54] was greater than 100 µM. For the same compound, the GI50 [29] was 28.6 µM, the TGI [29] was 86.5 µM and the GI50 [57] was 85.1 µM. It also gave a TGI [57] greater than 100 µM, a GI50 [30] of 29.9 µM and a TGI [30] greater than 100 µM.

Reference: PubChem BioAssay (NCI)
